{"source": "patent US20070244196A1", "about": "“Prostaglandin F2alpha derivative-containing product” (SANTEN PHARMACEUTICAL CO., LTD., priority 2004, published 2007)", "experiment": "Storage stability test (eye drop in contact with resin containers, 40° C. for 7 days, HPLC)", "assay_type": "physicochemical", "conditions": "eye drop (present compound 0.0005%, polysorbate 80 0.05%, pH about 6), containers of propylene/ethylene random copolymer (98.7/1.3, 97.4/2.6, 96.4/3.6) compared with propylene homopolymer container", "procedure": "Hereinafter, the present invention will be described in detail through carrying out a storage stability test (40° C. for 7 days). However, such descriptions are disclosed for the purpose of understanding the present invention better and are not meant to limit the scope of the present invention.\nAs a typical example of a prostaglandin F2α derivative having at least a fluorine atom in its molecule, 16-phenoxy-15-deoxy-15,15-difluoro-17,18,19,20-tetranor-prostaglandin F2α isopropyl ester (hereinafter, referred to as the “present compound” ) was used. The present compound (0.0005%) and polysorbate 80 (0.05%) were dissolved in purified water, and then, commonly used additives such as disodium edetate (q.s.), concentrated glycerin (q.s.), benzalkonium chloride (q.s.) and the like were added thereto to obtain an eye drop with an osmotic pressure of about 1 and a pH of about 6. […]\nThe eye drop (110 ml) obtained in the section of “(1) Preparation of Eye Drop” was placed in a glass container and the glass container was heated to 40° C. […] The amount of the present compound contained in the glass container was measured by high performance liquid chromatography before and after the storage, and the content of the present compound (average) was calculated taking the content of the present compound at the time of initiation of storage as 100%."}
{"smiles": "CC(C)OC(=O)CCC/C=C\\C[C@@H]1[C@@H](/C=C/C(F)(F)COc2ccccc2)[C@H](O)C[C@@H]1O", "note": "[present compound, 16-phenoxy-15-deoxy-15,15-difluoro-17,18,19,20-tetranor-prostaglandin F2α isopropyl ester]", "values": [{"measurement": "content of the present compound (average), content at the time of initiation of storage taken as 100%", "value": "higher"}]}
